The values below come from patent US11446287B2, “Compounds and methods for EP300 or CBP modulation and indications therefor” (Opna Immuno-Oncology SA, priority 2019, dated 2022).

T1 sequence (Q92793 1081-1197): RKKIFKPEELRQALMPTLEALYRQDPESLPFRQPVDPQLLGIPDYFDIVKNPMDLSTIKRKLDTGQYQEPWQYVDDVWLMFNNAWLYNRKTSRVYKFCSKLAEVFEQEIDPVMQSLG

This test concerns the target T1, Recombinant human CBP containing the bromodomain (CBP-BD (1043-1159)) (Homo sapiens, UniProt Q92793).
T1 construct: Recombinant human CBP bromodomain (CBP-BD (1043-1159)); made in house; host or cells: E. coli BL21-CodonPlus (DE3), modified pET vector
Description: CBP Alphascreen binding assay. Particulars: read-out: CREBBP (CBP) IC50. How it is done:
CBP Alphascreen Binding Assay
Binding of compounds of Formula (I) with CBP was assessed using Alphascreen™ binding assay. The inhibition of the interaction between the CBP bromodomain and its acetylated target protein was measured quantitatively using recombinant CBP, an acetylated Histone 3 peptide and AlphaScreen™ technology. In absence of inhibition of the CBP protein bound to AlphaScreen™ nickel chelate acceptor beads can interact with the acetylated Histone 3 peptide which was immobilized by the AlphaScreen™ Streptavidin coated beads. This interaction brings donor and acceptor beads in proximity. The close proximity allows the singlet oxygen produced by laser excitation of the donor beads to reach the acceptor beads and generate a luminescence signal. CBP inhibitors result in a decrease in the proximity signal through an inhibition of the CBP—acetylated peptide interaction.
Recombinant human CBP containing the bromodomain (CBP-BD (1043-1159)) was prepared and purified as described in protein expression and purification session. The peptide was human Histone H345-64K56Ac-Biotin (Anaspec CA, USA).
Protocol for CBP assay: All components are prepared in buffer composed of 50 mM HEPES pH 7.5, 50 mM NaCl, 0.01% BSA, 0.01% Triton X-100, 2 mM DTT. Test compounds and DMSO vehicle are diluted 1:50 in buffer and a 4 μL volume was transferred to an Alphaplate. 5.5 μL of CBP protein and 5.5 μL of peptide are added to wells containing 4 μL of various concentrations of test compounds of Formula (I) or DMSO vehicle in an Alphaplate (PerkinElmer GA, USA) and incubated for 1 hour at room temperature. 5 μL donor and acceptor bead mixture was then added with final concentrations of 7.5 μg/ml. 60 minutes after bead addition, Alpha signal was read on the Envision spectrometer (λEx 680 nm, λEm 520-620 nm). Final concentrations of bromodomain proteins and peptide are as shown below.
All data were normalized to the mean of 16 high and 16 low control wells on each plate. A four parameter curve fit of the following formula was then applied: Y=A+((B−A)/(1+((C/x)^D))) Where ‘A’ is the minimum, ‘B’ is the maximum, ‘C’ is the IC50 and ‘D’ is the Hill slope. Protein Expression and Purification
Recombinant human CBP bromodomain (CBP-BD (1043-1159)) was expressed in E. coli cells (in a modified pET vector) with an N-terminal six-His tag and purified using a combination of both IMAC (Ni-affinity) and size exclusion chromatography steps.
Recombinant CBP protein was expressed using the E. coli strain BL21-CodonPlus (DE3) (Agilent Technologies CA, USA). Cells were grown in Terrific Broth (TB) media to an OD600 of 0.92 at 37° C. at which temperature was reduced to 20° C., protein was induced with 1.0 mM isopropyl-β-D-thiogalactopyranoside (“IPTG”) for 20 hours and harvested by centrifugation at 8500×g for 20 minutes. Cells were re-suspended in 0.1M K2PO4 pH 8.0, 250 mM NaCl, 10% Glycerol, 0.75% NP-40, 25 mM Imidazole, with 0.2 mg/ml Lysozyme, 0.2 mM phenylmethanesulfonyl fluoride (“PMSF”), […] (“BME”), 25 μg/ml DNase I, incubated on ice for 30 minutes and lysed with a cell disruptor (MicroFluidics MA, USA). The lysate was clarified by centrifugation at 20,000×g for 1 hour. The protein was captured with Ni-NTA resin (Life Technologies, USA). Contaminating proteins were washed off with 40 mM HEPES pH 7.5, 500 mM NaCl, 5% Glycerol, 5 mM Imidazole, and 5 mM BME. Following 3× wash steps, protein was eluted using 400 mM Imidazole in 40 mM HEPES pH 7.5, 400 mM NaCl, and 5 mM BME. The protein was further purified using a size exclusion column (26/600 Superdex 200, GE Biosciences NJ, USA) in 40 mM HEPES pH 7.5, 250 mM NaCl, 5 mM BME. The protein was aliquoted and flash-frozen in liquid Nitrogen.
In general terms: Alpha assays give light when donor and acceptor beads are brought close together.
As usually defined, the IC50 is the concentration that inhibits the measured activity by half. On to `CCOc1cc(C(=O)O)ccc1-c1cn([C@@H](C)c2ccccn2)c2ncc(-c3c(C)noc3C)cc12` [P-0114, (S)-4-(5-(3,5-dimethylisoxazol-4-yl)-1-(1-(pyridin-2-yl)ethyl)-1H-pyrrolo[2,3-b]pyridin-3-yl)-3-ethoxybenzoic acid], for which the IC50 was in the range of 0.0001 to 1 µM.

Turning to `Cc1noc(C)c1-c1cnc2c(c1)c(-c1ccc(C(=O)O)cc1OCC(F)(F)F)cn2[C@@H](C)c1ccccn1` [P-0115, (S)-4-(5-(3,5-dimethylisoxazol-4-yl)-1-(1-(pyridin-2-yl)ethyl)-1H-pyrrolo[2,3-b]pyridin-3-yl)-3-(2,2,2-trifluoroethoxy)benzoic acid], the IC50 lay in the range of 0.0001 to 1 µM. The value for `Cc1noc(C)c1-c1cnc2c(c1)c(-c1ccc(C(=O)O)cc1C(F)(F)F)cn2[C@@H](C)c1ccccn1` [P-0116, (S)-4-(5-(3,5-dimethylisoxazol-4-yl)-1-(1-(pyridin-2-yl)ethyl)-1H-pyrrolo[2,3-b]pyridin-3-yl)-3-(trifluoromethyl)benzoic acid] was 0.0001 to 1 µM. Regarding `CCCOc1cc(C(=O)O)cc(OCCC)c1-c1cn([C@@H](C)c2ccccn2)c2ncc(-c3c(C)noc3C)cc12` [P-0117, (S)-4-(5-(3,5-dimethylisoxazol-4-yl)-1-(1-(pyridin-2-yl)ethyl)-1H-pyrrolo[2,3-b]pyridin-3-yl)-3,5-dipropoxybenzoic acid], the IC50 fell in the range of 0.0001 to 1 µM.

Turning to `Cc1noc(C)c1-c1cnc2c(c1)c(-c1c(OC(C)C)cc(C(=O)O)cc1OC(C)C)cn2[C@@H](C)c1ccccn1` [P-0118, (S)-4-(5-(3,5-dimethylisoxazol-4-yl)-1-(1-(pyridin-2-yl)ethyl)-1H-pyrrolo[2,3-b]pyridin-3-yl)-3,5-diisopropoxybenzoic acid], the IC50 lay within 0.0001 to 1 µM.

As for `COc1cc(C(=O)O)cc(OC)c1-c1cn(C(C)c2ccccc2)c2cc(-c3c(C)noc3C)cnc12` (centres unmarked) [P-0119, 4-(6-(3,5-dimethylisoxazol-4-yl)-1-(1-phenylethyl)-1H-pyrrolo[3,2-b]pyridin-3-yl)-3,5-dimethoxybenzoic acid], the IC50 was in the range of 0.0001 to 1 µM. The value for `Cc1noc(C)c1-c1cnc2c(-c3ccccc3C(=O)O)cn(C(C)c3ccccc3)c2c1` (centres unmarked) [P-0120, 2-(6-(3,5-dimethylisoxazol-4-yl)-1-(1-phenylethyl)-1H-pyrrolo[3,2-b]pyridin-3-yl)benzoic acid] was 1 to 8 µM; that for `Cc1noc(C)c1-c1cnc2c(C(=O)C3CCC3)cn(-c3c(Cl)cc(C(=O)O)cc3Cl)c2c1` [P-0121, 3,5-dichloro-4-(3-(cyclobutanecarbonyl)-6-(3,5-dimethylisoxazol-4-yl)-1H-pyrrolo[3,2-b]pyridin-1-yl)benzoic acid] was 0.0001 to 1 µM. The value for `Cc1noc(C)c1-c1cnc2c(c1)c(-c1cccc(C(=O)O)n1)cn2C(C)c1ccccn1` (centres unmarked) [P-0122, 6-(5-(3,5-dimethylisoxazol-4-yl)-1-(1-(pyridin-2-yl)ethyl)-1H-pyrrolo[2,3-b]pyridin-3-yl)picolinic acid] was 1 to 8 µM. For the compound `Cc1noc(C)c1-c1cnc2c(c1)c(-c1ccc(C(=O)O)cn1)cn2C(C)c1ccccn1` (centres unmarked) [P-0123, 6-(5-(3,5-dimethylisoxazol-4-yl)-1-(1-(pyridin-2-yl)ethyl)-1H-pyrrolo[2,3-b]pyridin-3-yl)nicotinic acid], the IC50 was 0.0001 to 1 µM. `Cc1noc(C)c1-c1cnc2c(c1)c(-c1cc(C(=O)O)ccn1)cn2C(C)c1ccccn1` (centres unmarked) [P-0124, 2-(5-(3,5-dimethylisoxazol-4-yl)-1-(1-(pyridin-2-yl)ethyl)-1H-pyrrolo[2,3-b]pyridin-3-yl)isonicotinic acid]: the IC50 lay in the range of 0.0001 to 1 µM.

In the case of `Cc1noc(C)c1-c1cnc2c(c1)c(-c1ccc(F)c(C(=O)O)c1F)cn2[C@@H](C)c1ccccn1` [P-0125, (S)-3-(5-(3,5-dimethylisoxazol-4-yl)-1-(1-(pyridin-2-yl)ethyl)-1H-pyrrolo[2,3-b]pyridin-3-yl)-2,6-difluorobenzoic acid], the IC50 fell in the range of 0.0001 to 1 µM. For the compound `Cc1noc(C)c1-c1cnc2c(c1)c(-c1ccnc(C(=O)O)n1)cn2C(C)c1ccccn1` (centres unmarked) [P-0126, 4-(5-(3,5-dimethylisoxazol-4-yl)-1-(1-(pyridin-2-yl)ethyl)-1H-pyrrolo[2,3-b]pyridin-3-yl)pyrimidine-2-carboxylic acid], the IC50 was 0.0001 to 1 µM.

For `CCCOc1cc(C(=O)O)cc(OCCC)c1-n1cc(CC2CCC2)c2ncc(-c3c(C)noc3C)cc21` [P-0127, 4-(3-(cyclobutylmethyl)-6-(3,5-dimethylisoxazol-4-yl)-1H-pyrrolo[3,2-b]pyridin-1-yl)-3,5-dipropoxybenzoic acid], the IC50 was in the range of 0.0001 to 1 µM. The same measure for `Cc1noc(C)c1-c1cnc2c(Cc3cccc(Cl)c3)cn(-c3c(Cl)cc(C(=O)O)cc3Cl)c2c1` [P-0128, 3,5-dichloro-4-(3-(3-chlorobenzyl)-6-(3,5-dimethylisoxazol-4-yl)-1H-pyrrolo[3,2-b]pyridin-1-yl)benzoic acid]: 0.0001 to 1 µM. The same measure for `Cc1noc(C)c1-c1cnc2c(C(=O)c3cccc(OC(F)F)c3)cn(-c3c(Cl)cc(C(=O)O)cc3Cl)c2c1` [P-0129, 3,5-dichloro-4-(3-(3-(difluoromethoxy)benzoyl)-6-(3,5-dimethylisoxazol-4-yl)-1H-pyrrolo[3,2-b]pyridin-1-yl)benzoic acid]: 0.0001 to 1 µM; for `Cc1noc(C)c1-c1cnc2c(CC3CCC3)cn(-c3ccc([N+](=O)[O-])cc3F)c2c1` [P-0130, 4-(3-(cyclobutylmethyl)-1-(2-fluoro-4-nitrophenyl)-1H-pyrrolo[3,2-b]pyridin-6-yl)-3,5-dimethylisoxazole]: 8 to 1000 µM; for `Cc1noc(C)c1-c1cnc2c(Cc3ccccc3Cl)cn(-c3c(Cl)cc(C(=O)O)cc3Cl)c2c1` [P-0131, 3,5-dichloro-4-(3-(2-chlorobenzyl)-6-(3,5-dimethylisoxazol-4-yl)-1H-pyrrolo[3,2-b]pyridin-1-yl)benzoic acid]: 0.0001 to 1 µM. In the case of `Cc1noc(C)c1-c1cnc2c(Cc3cccc(OCc4ccccc4)c3)cn(-c3c(Cl)cc(C(=O)O)cc3Cl)c2c1` [P-0132, 4-(3-(3-(benzyloxy)benzyl)-6-(3,5-dimethylisoxazol-4-yl)-1H-pyrrolo[3,2-b]pyridin-1-yl)-3,5-dichlorobenzoic acid], the IC50 fell in the range of 0.0001 to 1 µM. The same measure for `Cc1noc(C)c1-c1cnc2c(C(=O)c3cccc(OCc4ccccc4)c3)cn(-c3c(Cl)cc(C(=O)O)cc3Cl)c2c1` [P-0133, 4-(3-(3-(benzyloxy)benzoyl)-6-(3,5-dimethylisoxazol-4-yl)-1H-pyrrolo[3,2-b]pyridin-1-yl)-3,5-dichlorobenzoic acid]: 0.0001 to 1 µM; for `COc1ccc(-n2cc(CC3CCC3)c3ncc(-c4c(C)noc4C)cc32)cn1` [P-0134, 4-(3-(cyclobutylmethyl)-1-(6-methoxypyridin-3-yl)-1H-pyrrolo[3,2-b]pyridin-6-yl)-3,5-dimethylisoxazole]: 1 to 8 µM. Take `COc1cc(C(=O)O)cc(OCc2ccccc2)c1-c1cn([C@@H](C)c2ccccn2)c2ncc(-c3c(C)noc3C)cc12` [P-0135, (S)-3-(benzyloxy)-4-(5-(3,5-dimethylisoxazol-4-yl)-1-(1-(pyridin-2-yl)ethyl)-1H-pyrrolo[2,3-b]pyridin-3-yl)-5-methoxybenzoic acid]: the IC50 lay within 0.0001 to 1 µM. With `COc1c(C(=O)O)cccc1-c1cn(C(C)c2ccccc2)c2cc(-c3c(C)noc3C)cnc12` (centres unmarked) [P-0136, 3-(6-(3,5-dimethylisoxazol-4-yl)-1-(1-phenylethyl)-1H-pyrrolo[3,2-b]pyridin-3-yl)-2-methoxybenzoic acid], the IC50 was in the range of 0.0001 to 1 µM.
